According to patent US6483013B1, “Method for agrobacterium mediated transformation of cotton” (Bayer BioScience N.V., priority 1999, dated 2002):
Where “and” joins values, the source holds several entries; their conditions need not be identical. Equal entries are not always repeated.

System: cotton embryogenic callus
Experiment: β-glucuronidase (GUS) assay of embryogenic cotton callus after cocultivation with Agrobacterium strain A3311
Type: cell-based, cotton (variety Coker 312)
Procedure: Embryogenic cotton callus was obtained in the following way: Cotton seeds of variety Coker 312 were disinfected using a 12% sodium hypochloride solution, and germinated individually in tubes containing a solution of gelrite 2/g/l H2O and 0.94 g/l MgCl2.6H2O. The tubes were incubated in the dark at 27-28° C. After 10 to 14 days, seedlings are collected, the hypocotyls of the seedlings were cut in segments of about 1 cm and incubated on medium 104 (without plant hormones) at 28° C. under a regime of 16 hr light and 8 hr dark. Every three weeks, the segments were transferred to fresh medium, until embryogenic callus was formed (usually after about 9 weeks). This callus was removed from the explants and cultured further on medium 104.
Agrobacterium strain A 3311 cells were grown on AB medium or MAG medium, collected and resuspended in M104 liquid medium, pH 5.2 (either with or without 100 μM acetosyringone (AS)) or MAG medium at a density of about 1×10^9 CFU/ml. Small embryogenic cotton callus clumps were collected, washed in liquid medium 104 at pH 5.2, and immersed in the Agrobacterium suspension for about 20 minutes. The infected embryogenic calli were than transferred to solid medium 104, pH 5.2, supplemented with either 100 μM AS, 0.5 g/l casamino acids, 100 μM AS and 0.5 g/l casamino acids, or not supplemented at all, and incubated for cocultivation during 4 days in the dark at about 24° C.
After the cocultivation phase, the callus clumps were transferred to selective medium 104 supplemented with 50 mg/l kanamycin and 500mg/l Claforan.
At different time intervals after the cocultivation, samples of embryogenic callus were collected and subjected to a β-glucuronidase assay, using a chromogenic substrate as described by Jefferson et al. (1987; Plant Mol. Biol. Rep. 5: 387-405). The results of these tests are summarized in table 1, and are expressed as the percentage of calli expressing GUS-positive spots.
As a control, experiments were included using tobacco leaf discs co-cultivated with A3311, using mock-inoculated tobacco leaf discs or using mock-inoculated embryogenic cotton callus.

[1] = 100 μM AS only in A3311 resuspension medium M104, cocultivation medium M104 not supplemented
[2] = A3311 resuspended in M104 + 100 μM AS, supplement in cocultivation medium M104
[3] = A3311 resuspended in M104, supplement in cocultivation medium M104
[4] = A3311 resuspended in MAG, supplement in cocultivation medium M104
[5] = no Agrobacterium (mock-inoculated), supplement in cocultivation medium M104

- percentage of calli expressing GUS-positive spots, 8 weeks [1]: Dead
- need for inclusion during Agrobacterium mediated transformation of embryogenic callus (both for transient expression and after prolonged cultivation of the transformed calli): required
- percentage of calli expressing GUS-positive spots, 8 weeks [5]: Dead
SMILES: COc1cc(C(C)=O)cc(OC)c1O [AS, 3,5-dimethoxy-4-hydroxyacetophenone]
- percentage of calli expressing GUS-positive spots, 4 weeks [1]: 0%
- percentage of calli expressing GUS-positive spots, 6 weeks [1]: 0%
- percentage of calli expressing GUS-positive spots, 4 days [1]: 0%
- percentage of calli expressing GUS-positive spots, 11 days [1]: 0%
- percentage of calli expressing GUS-positive spots, 8 weeks [2]: 90% and 50%
- percentage of calli expressing GUS-positive spots, 11 days [2]: 70% and 90%
- percentage of calli expressing GUS-positive spots, 6 weeks [3]: 15% and 25%
- percentage of calli expressing GUS-positive spots, 8 weeks [3]: 20%
- percentage of calli expressing GUS-positive spots, 11 days [3]: 50% and 90%
- percentage of calli expressing GUS-positive spots, 4 days (A3311 resuspended in MAG, supplement in cocultivation medium M104 (100 μM AS and/or 0.5 g/l cas. acids)): 90%
- percentage of calli expressing GUS-positive spots, 4 weeks [4]: 50%
- percentage of calli expressing GUS-positive spots, 6 weeks [4]: 50% and 90%
- percentage of calli expressing GUS-positive spots, 8 weeks [4]: 90% and 80%
- percentage of calli expressing GUS-positive spots, 11 days [4]: 90%
- percentage of calli expressing GUS-positive spots, 4 days (no Agrobacterium (mock-inoculated), supplement in cocultivation medium M104 (100 μM AS and/or 0.5 g/l cas. acids)): 0%
- percentage of calli expressing GUS-positive spots, 4 weeks [5]: 0%
- percentage of calli expressing GUS-positive spots, 6 weeks [5]: 0%
- percentage of calli expressing GUS-positive spots, 11 days [5]: 0%
